Measured values taken from patent US9808528B2, “Protein-polymer-drug conjugates and methods of using same” (priority 2014, dated 2017).
Several values for one entry are separate records, joined by “and”; a condition that tells them apart may be missing. Identical values can stand only once.

Key:
NCI-H522 = experiment: Cytotoxicity assay (CellTiter-Glo); assay type: cell-based; conditions: HER2 molecules per cell 25,000; Her2 expression 1+; 72 hours or 6 days
Protocol: (§1) NCI-H1581 (non-small cell lung carcinoma medium expressing cell line, not amplified, ATCC, Cat.# CRL-5878) cells were cultured in DMEM:F12 medium (ATCC, Cat#30-2006). […] CALU3 (human lung adenocarcinoma cell line, ATCC, Cat# HTB-55) was cultured in ATCC-formulated Eagle's Minimum Essential Medium. […] NCI-H2122 (human lung adenocarcinoma cell line, not amplified, ATCC, Cat# CRL-5985) was cultured in RPMI-1640 Medium, (ATCC, Cat#30-2001).
(§2) For the cytotoxicity assay, cells were seeded at a density of 3000 cells per well in 96 well plates and allowed to attach during overnight incubation at 37° C. in the presence of 5% CO2.

BT474 [1] = experiment: Cell viability assay (Cell Titer-Glo); assay type: cell-based, human; conditions: 72 h incubation; AF-HPA as toxin equivalents
Protocol: (§3) PBRM-polymer-drug conjugates were evaluated for their antiproliferation properties in tumor cell lines in vitro using Cell Titer-Glo (Promega Corp). Cells were plated in black walled 96-well plate and allowed to adhere overnight at 37° C. in a humidified atmosphere of 5% CO2. SKBR3, BT474, NCI-N87 cells (HER2 expressing cells), MCF7 cells (HER2 low expressing levels cells) and JIMT1 cells (HER2 medium expression level cells) were plated at a density of 5,000 cells per well. The next day the medium was replaced with 50 μL fresh medium and 50 μL of 2× stocks of PBRM-polymer-drug conjugate, drug polymer conjugate or drug were added to appropriate wells, mixed and incubated for 72 h. Cell Titer-Glo reagent was added to the wells at room temperature and the luminescent signal was measured after 10 min using a SpectraMax M5 plate reader (Molecular Devices). Dose response curves were generated using SoftMax Pro software. IC50 values were determined from four-parameter curve fitting.

NCI-H1581 = experiment: Cytotoxicity assay (CellTiter-Glo); assay type: cell-based; conditions: HER2 molecules per cell 13,000; Her2 expression 1+; 72 hours or 6 days
Protocol: as §1, §2

JIMT-1 cells = experiment: Tumor growth response, JIMT-1 xenograft; assay type: in vivo, mice; conditions: single IV dose day 1
Protocol: Female CB-17 SCID mice were inoculated subcutaneously with BT474 tumor fragments (n=10 for each group) or JIMT-1 cells (n=10 for each group) or NCI-N87 cells (n=10 for each group). […] Test compounds or vehicle were dosed IV as a single dose on day 1. Tumor size was measured at the times indicated in FIGS. 1 to 6 using digital calipers. Tumor volume was calculated and was used to determine the delay in tumor growth. Mice were sacrificed when tumors reached a size of 800 to 1500 mm^3. Tumor volumes are reported as the mean±SEM (“standard error of mean”) for each group.

NCI-H2122 = experiment: Cytotoxicity assay (CellTiter-Glo); assay type: cell-based, human; conditions: HER2 molecules per cell 12,000; Her2 expression 1+; 72 hours or 6 days
Protocol: as §1, §2

JIMT1 = experiment: Cell viability assay (Cell Titer-Glo); assay type: cell-based; conditions: 72 h incubation; HER2 medium expression level cells; AF-HPA as toxin equivalents
Protocol: as §3

MKN45 = experiment: Cytotoxicity assay (CellTiter-Glo); assay type: cell-based, human; conditions: HER2 molecules per cell 16,000; Her2 expression 1+; 72 hours or 6 days
Protocol: (§4) OVCAR3 (ovarian adenocarcinoma, not amplified, ATCC, Cat# HTB-161) was cultured in RPMI medium with 20% FBS. […] MKN-45 III (human gastric adenocarcinoma cell line, not amplified, DSMZ, Braunschweig, Germany, Cat.# ACC409) was cultured in RPMI-1640 Medium, (ATCC, Cat#30-2001). SKOV3 (human ovary adenocarcinoma cell line ATCC, Cat.# HTB-77), was cultured in McCoy's 5a Medium.
as §2

N87 = experiment: Cell viability assay (Cell Titer-Glo); assay type: cell-based; conditions: 72 h incubation; AF-HPA as toxin equivalents
Protocol: as §3

NCI-H460 = experiment: Cytotoxicity assay (CellTiter-Glo); assay type: cell-based, human; conditions: HER2 molecules per cell 4,000; Her2 expression 1+; 72 hours or 6 days
Protocol: (§5) A549 (human lung carcinoma cell line, not amplified, ATCC, Cat# CCL-185) was cultured in F12K Medium. […] NCI-H460 (human lung carcinoma cell line, not amplified, ATCC, Cat.# HTB-177) was cultured in RPMI-1640 Medium, (ATCC, Cat.#30-2001). SHP-77 (human small cell lung cancer cell line, not amplified, ATCC, Cat.# CRL-2195) was cultured in RPMI-1640 Medium, (ATCC, Cat#30-2001).
as §2

CAMA-1 = experiment: Cytotoxicity assay (CellTiter-Glo); assay type: cell-based, human; conditions: HER2 molecules per cell 50,000; Her2 expression 1+; 72 hours or 6 days
Protocol: (§6) MDA-MB-175-VII (human breast cancer cell line, not amplified, ATCC, Cat.# HTB-25), was cultured in Leibovitz's L-15 Medium with 20% FBS. CAMA-1 (human breast cancer cell line, not amplified, ATCC, Cat.# HTB-21), was cultured in 90% ATCC-formulated Eagle's Minimum Essential Medium.
as §2

TOV21G = experiment: Cytotoxicity assay (CellTiter-Glo); assay type: cell-based, human; conditions: HER2 molecules per cell 12,000; Her2 expression 1+; 72 hours or 6 days
Protocol: as §4, §2

NCI-H2170 = experiment: Cytotoxicity assay (CellTiter-Glo); assay type: cell-based; conditions: HER2 molecules per cell 660,000; Her2 expression 3+; 72 hours or 6 days
Protocol: as §1, §2

SKBR3 = experiment: Cell viability assay (Cell Titer-Glo); assay type: cell-based; conditions: 72 h incubation; AF-HPA as toxin equivalents
Protocol: as §3

CALU3 = experiment: Cytotoxicity assay (CellTiter-Glo); assay type: cell-based, human; conditions: HER2 molecules per cell 330,000; Her2 expression 3+; 72 hours or 6 days
Protocol: as §1, §2

BT474 [2] = experiment: Cytotoxicity assay (CellTiter-Glo); assay type: cell-based, human; conditions: HER2 molecules per cell 860,000; Her2 expression 3+; 72 hours or 6 days
Protocol: as §4, §2

MDA-MB-231 = experiment: Cytotoxicity assay (CellTiter-Glo); assay type: cell-based, human; conditions: HER2 molecules per cell 5400; Her2 expression 1+; 72 hours or 6 days
Protocol: (§7) ZR75-1 (human breast cancer cell line, not amplified, ATCC, Cat.# CRL-1500), was cultured in RPMI-1640 Medium. HCC1187 (human breast cancer cell line, not amplified, ATCC, Cat.# CRL-2322), was cultured in RPMI-1640 Medium. HCC38 (human breast cancer cell line, not amplified, ATCC, Cat.# CRL-2314), was cultured in RPMI-1640 Medium. T47D (human breast cancer cell line, not amplified, ATCC, Cat.# HTB-133), was cultured in RPMI-1640 Medium. MDA-MB-231 (human breast cancer cell line, not amplified, ATCC, Cat.# HTB-26), was cultured in DMEM Medium.
as §2

NCI-N87 = experiment: Cytotoxicity assay (CellTiter-Glo); assay type: cell-based; conditions: HER2 molecules per cell 700,000; Her2 expression 3+; 72 hours or 6 days
Protocol: as §2

T47D = experiment: Cytotoxicity assay (CellTiter-Glo); assay type: cell-based, human; conditions: HER2 molecules per cell 20,000; Her2 expression 1+; 72 hours or 6 days
Protocol: as §7, §2

MCF7 = experiment: Cell viability assay (Cell Titer-Glo); assay type: cell-based; conditions: 72 h incubation; HER2 low expressing cells; AF-HPA as toxin equivalents
Protocol: as §3

SNU5 = experiment: Cytotoxicity assay (CellTiter-Glo); assay type: cell-based; conditions: HER2 molecules per cell 22,000; Her2 expression 1+; 72 hours or 6 days
Protocol: as §5, §2

A549 = experiment: Cytotoxicity assay (CellTiter-Glo); assay type: cell-based, human; conditions: HER2 molecules per cell 6,000; Her2 expression 1+; 72 hours or 6 days
Protocol: as §5, §2

KATOIII = experiment: Cytotoxicity assay (CellTiter-Glo); assay type: cell-based, human; conditions: HER2 molecules per cell 19,000; Her2 expression 1+; 72 hours or 6 days
Protocol: as §5, §2

OVCAR3 = experiment: Cytotoxicity assay (CellTiter-Glo); assay type: cell-based; conditions: HER2 molecules per cell 7,200; Her2 expression 1+; 72 hours or 6 days
Protocol: as §4, §2

MDA-MB-361 = experiment: Cytotoxicity assay (CellTiter-Glo); assay type: cell-based, human; conditions: HER2 molecules per cell 135,000; Her2 expression 2+; 72 hours or 6 days
Protocol: as §6, §2

HCC1187 = experiment: Cytotoxicity assay (CellTiter-Glo); assay type: cell-based, human; conditions: HER2 molecules per cell 38,000; Her2 expression 2+; 72 hours or 6 days
Protocol: as §7, §2

MDA-MB-453 = experiment: Cytotoxicity assay (CellTiter-Glo); assay type: cell-based; conditions: HER2 molecules per cell 125,000; Her2 expression 2+; 72 hours or 6 days
HCC38 = experiment: Cytotoxicity assay (CellTiter-Glo); assay type: cell-based, human; conditions: HER2 molecules per cell 36,000; Her2 expression 2+; 72 hours or 6 days
Protocol: as §7, §2

SKOV3 = experiment: Cytotoxicity assay (CellTiter-Glo); assay type: cell-based, human; conditions: HER2 molecules per cell 220,000; Her2 expression 3+; 72 hours or 6 days
Protocol: as §4, §2

JIMT-1 = conditions: read-out: IC50 JIMT-1; HER2 molecules per cell 80,000; Her2 expression 2+; 72 hours or 6 days
MDA-MB-175VII = experiment: Cytotoxicity assay (CellTiter-Glo); assay type: cell-based, human; conditions: read-out: IC50 MDA-MB-175VII; HER2 molecules per cell 51,000; Her2 expression 1+; 72 hours or 6 days
Protocol: as §6, §2

ZR75-1 = experiment: Cytotoxicity assay (CellTiter-Glo); assay type: cell-based, human; conditions: HER2 molecules per cell 40,000; Her2 expression 1+; 72 hours or 6 days
Protocol: as §7, §2

SHP-77 = experiment: Cytotoxicity assay (CellTiter-Glo); assay type: cell-based, human; conditions: HER2 molecules per cell 0; 72 hours or 6 days
Protocol: as §5, §2

hErbB2 = hErbB2 (Homo sapiens, UniProt P04626); experiment: Ligand binding studies by BIAcore surface plasmon resonance (SPR); conditions: 25° C.; immobilized hErbB2; BioRad ProteOn XPR36
Protocol: The kinetic binding of the PBRM-polymer-drug conjugate to an immobilized receptor is determined by BIAcore SPR. The binding constants for the PBRM in the PBRM-polymer-drug conjugate and PBRM alone can be determined using standard BIAcore procedures.
The kinetic binding of the PBRM-polymer-drug conjugate to an immobilized receptor was determined by BIAcore SPR.

## ado-trastuzumab emtansine [Kadcyla]
NCI-H522
  IC50: ~100 nM
BT474 [1]
  IC50: 2.4 nM
NCI-H1581
  IC50: ~100 nM
JIMT-1 cells; Example 14 at 2, 0.67 and 0.3 mg/kg, trastuzumab 20 mg/kg, Kadcyla 20 mg/kg
  tumor volume response (in words), FIG. 4A: increase of tumor volume
JIMT-1 cells; conjugates […], trastuzumab 10 mg/kg, Kadcyla 10 mg/kg
  tumor volume response (in words), FIG. 2: increase of tumor volume
NCI-H2122
  IC50: 19 nM
JIMT1
  IC50: 18 nM
MKN45
  IC50: > 100 nM
N87
  IC50: 0.09 nM
NCI-H460
  IC50: 68 nM
CAMA-1
  IC50: 7.8 nM
TOV21G
  IC50: > 100 nM
NCI-H2170
  IC50: 0.4 nM
SKBR3
  IC50: 0.23 nM
CALU3
  IC50: > 100 nM
BT474 [2]
  IC50: 1.3 nM
MDA-MB-231
  IC50: 27 nM
NCI-N87
  IC50: 0.3 nM
T47D
  IC50: 82.3 nM
MCF7
  IC50: 38.6 nM
SNU5
  IC50: ~100 nM
A549
  IC50: > 100 nM
KATOIII
  IC50: > 100 nM
OVCAR3
  IC50: ~85 nM
MDA-MB-361
  IC50: 0.27 nM and 0.33 nM
HCC1187
  IC50: 30 nM
MDA-MB-453
  IC50: ~100 nM
HCC38
  IC50: > 100 nM
SKOV3
  IC50: 5.6 nM
JIMT-1
  IC50: 17.5 nM
MDA-MB-175VII
  IC50: 1.2 nM
ZR75-1
  IC50: > 100 nM
SHP-77
  IC50: > 100 nM
hErbB2
  ka (association or affinity rate constant): 4.61 ± 0.2 × 10^5 M^−1s^−1
  kd (dissociation rate constant): 3.17 ± 0.9 × 10^−5 s^−1
